≈ marks a conversion by molar mass, not a printed value. Like-named read-outs stand apart in the source and are kept apart here.
What was measured:
[1] = target: Constitutive 20S proteasome peptidylglutamyl peptide hydrolyzing (PGPH) activity (Homo sapiens (Human), UniProt P28072+Q99436); assay: Constitutive 20S proteasome PGPH activity inhibition, fluorogenic substrate Z-Leu-Leu-Glu-AMC; format: biochemical; conditions: purified human 20S proteasome, room temperature, one hour
Procedure: (§1) Inhibition of the 20S proteasome can be determined by methods and assays known in the art, for example, as disclosed by Stein et al., Biochemistry (1996), 35, 3899-3908; by Lightcap et al., Clinical Chemistry, 2000, 46, 673-683; by Kisselev et al., Journal of Biological Chemistry. (2006), 281, 8582-8590 and in U.S. application Ser. No. 09/569,748. The chymotrypsin-like (CT-L), peptidylglutamyl peptide hydrolyzing (PGPH) and trypsin-like (T-L) activities of the 20S proteasome are measured with a fluorogenic substrate assay method using succinyl-Leu-Leu-Val-Tyr-AMC, Z-Leu-Leu-Glu-AMC and Boc-Leu-Arg-Arg-AMC, respectively, as the substrates in an assay buffer. The free fluorophore 7-Amino-4-methylcoumarin (AMC) after cleavage from the substrates is quantified using a fluorometer and activity of CT-L, PGPH and T-L of 20S proteasome is determined.
(§2) Inhibition of the chymotrypsin-like (CT-L), peptidylglutamyl peptide hydrolyzing activity (PGPH), and trypsin-like (T-L) activities of the 20S proteasome in enzymatic assays were determined using succinyl-Leu-Leu-Val-Tyr-AMC (10 μmol/L), Z-Leu-Leu-Glu-AMC (10 μmol/L) and Boc-Leu-Arg-Arg-AMC (50 μmol/L), respectively, as the substrates with purified human 20S proteasome at 2, 4 and 8 nmol/L, respectively, in the assay buffer containing 25 mM HEPES (pH7.5), 0.5 mM EDTA, 0.002% sodium dodecyl sulfate (SDS) and 0.05% NP-40. Stock solutions of the 20S proteasome inhibitors disclosed herein were prepared in dimethyl sulfoxide (DMSO) and the final DMSO concentration in the assay mixture was 1%. Reaction was conducted at room temperature for one hour. Proteasome activity was measured based on detection of the fluorophore 7-Amino-4-methylcoumarin (AMC) after cleavage from the substrates with a plate-based spectrofluorometer.

[2] = target: Constitutive 20S proteasome chymotrypsin-like (CT-L) activity (Homo sapiens (Human), UniProt P20618+P28074); assay: Constitutive 20S proteasome CT-L activity inhibition, fluorogenic substrate succinyl-Leu-Leu-Val-Tyr-AMC; format: biochemical
Procedure: as §1, §2

[3] = target: 20S Immunoproteasome peptidylglutamyl peptide hydrolyzing (PGPH) activity (Homo sapiens (Human), UniProt P28065+P40306); assay: 20S immunoproteasome PGPH activity inhibition, fluorogenic substrate Z-Leu-Leu-Glu-AMC; format: biochemical; conditions: purified human 20S proteasome, room temperature, one hour
Procedure: as §1, §2

[4] = target: 20S Immunoproteasome trypsin-like (T-L) activity (Homo sapiens (Human), UniProt P40306+P49720); assay: 20S immunoproteasome T-L activity inhibition, fluorogenic substrate Boc-Leu-Arg-Arg-AMC; format: biochemical; conditions: purified human 20S proteasome, room temperature, one hour
Procedure: as §1, §2

[5] = target: 20S Immunoproteasome chymotrypsin-like (CT-L) activity (Homo sapiens (Human), UniProt P20618+P28062); assay: 20S immunoproteasome CT-L activity inhibition, fluorogenic substrate succinyl-Leu-Leu-Val-Tyr-AMC; format: biochemical; conditions: purified human 20S proteasome, room temperature, one hour
Procedure: as §1, §2

[6] = Aqueous solubility of the compounds; format: physicochemical; conditions: 50 mM citrate buffer, pH 4, aqueous buffer, thermodynamic from solid, 50 mM citrate pH4.0, 25° C.
Procedure: To determine the solubility of the compounds, 1-5 mg of a compound was weighed into a vial. 1 mL of aqueous buffer (50 mM citrate at pH4.0) was added. The vial was shaken at 25° C. for 24 hours and then centrifuged for 10 min at 10000 rpm. The supernatant was filtered through a 0.45 μm membrane filter and analyzed for the concentration of the compound. In certain embodiments, the aqueous solubility of the compounds is described herein in Table 1.

[7] = target: Constitutive 20S proteasome trypsin-like (T-L) activity (Homo sapiens (Human), UniProt P49720+Q99436); assay: Constitutive 20S proteasome T-L activity inhibition, fluorogenic substrate Boc-Leu-Arg-Arg-AMC; format: biochemical
Procedure: as §1, §2

[8] = form of 20S proteasome not stated, 'below about'
[9] = purified human 20S proteasome, room temperature, one hour, read-out: Proteasome inhibition IC50 (nM) Constitutive 20S proteasome CT-L
[10] = purified human 20S proteasome, room temperature, one hour, read-out: Proteasome inhibition IC50 (nM) Constitutive 20S proteasome T-L
[11] = form of 20S proteasome not stated, 'below about', read-out: concentration showing inhibition of T-L activity of the 20S proteasome

Structure (SMILES)	IC50 [1] [nM]	IC50 [2, 8] [nM]	IC50 [2, 9] [nM]	IC50 [3] [nM]	IC50 [4] [nM]	IC50 [5] [nM]	solubility at 24 h [6] [mg/mL]	IC50 [7, 10] [nM]	IC50 [7, 11] [nM]
CC(C)C[C@H](NC(=O)[C@H](CCc1ccccc1)NC(=O)CN1CCOCC1)C(=O)N[C@@H](Cc1ccncc1)C(=O)[C@@]1(C)CO1 [CX13-109]	> 20000	–	> 500	> 20000	> 20000	> 500	3.49 (≈ 5740 µM)	> 20000	–
CC(C)C[C@H](NC(=O)[C@H](Cc1ccncc1)NC(=O)[C@H](CCc1ccccc1)NC(=O)Cc1ccc(CN2CCOCC2)cc1)C(=O)[C@@]1(C)CO1 [CX13-133]	> 20000	< 5	3.58	> 20000	455	4.65	6.36 (≈ 9110 µM)	443	< 500
CC(C)C[C@H](NC(=O)[C@H](CCc1ccccc1)NC(=O)c1cc(CN2CCOCC2)on1)C(=O)N[C@@H](Cc1ccccc1)C(=O)[C@@]1(C)CO1 [CX13-105]	> 20000	< 5	0.97	> 20000	> 20000	1.34	0.021 (≈ 31.2 µM)	> 20000	–
CC(=O)N[C@@H](CCc1ccccc1)C(=O)N[C@@H](Cc1ccncc1)C(=O)N[C@@H](CC(C)C)C(=O)[C@@]1(C)CO1 [CX13-130]	> 20000	< 100	62.4	> 20000	1650	248	1.36 (≈ 2600 µM)	3600	–
COC[C@H](NC(=O)[C@H](CCc1ccccc1)NC(=O)c1cnc(C)s1)C(=O)N[C@@H](Cc1ccccc1)C(=O)[C@@]1(C)CO1 [CX13-705]	> 20000	< 10	9.75	> 20000	> 20000	15.3	0.02 (≈ 33.7 µM)	15800	–
COC[C@H](NC(=O)c1cnc(C)s1)C(=O)N[C@@H](COC)C(=O)N[C@@H](Cc1ccccc1)C(=O)[C@@]1(C)CO1 [CX13-709]	–	–	–	–	–	–	0.57 (≈ 1070 µM)	–	–
Cc1ncc(C(=O)N[C@@H](CCc2ccccc2)C(=O)N[C@@H](Cc2ccncc2)C(=O)N[C@@H](CC(C)C)C(=O)[C@@]2(C)CO2)s1 [CX13-137]	> 20000	< 50	13.5	> 20000	5860	60.4	0.91 (≈ 1500 µM)	11900	–
COC[C@H](NC(=O)c1cc(C)on1)C(=O)N[C@@H](Cc1ccncc1)C(=O)N[C@@H](CC(C)C)C(=O)[C@@]1(C)CO1 [CX13-501]	> 20000	–	113	> 20000	> 20000	392	4.48 (≈ 8460 µM)	> 20000	–

Next, values leading:

IC50 [1] [nM]	IC50 [2, 8] [nM]	IC50 [2, 9] [nM]	IC50 [3] [nM]	IC50 [4] [nM]	IC50 [5] [nM]	solubility at 24 h [6] [mg/mL]	IC50 [7, 10] [nM]	IC50 [7, 11] [nM]	Structure (SMILES)
> 20000	< 5	4.74	> 20000	6220	5.1	0.083 (≈ 137 µM)	9950	–	CC(C)C[C@H](NC(=O)[C@H](CCc1ccccc1)NC(=O)CN1CCOCC1)C(=O)N[C@@H](Cc1ccccc1)C(=O)[C@@]1(C)CO1 [CX13-107]
> 20000	< 50	33.3	> 20000	> 20000	33.6	1.44 (≈ 2130 µM)	> 20000	–	CC(C)C[C@H](NC(=O)[C@H](CCc1ccccc1)NC(=O)c1cc(CN2CCOCC2)on1)C(=O)N[C@@H](Cc1ccncc1)C(=O)[C@@]1(C)CO1 [CX13-104]
> 20000	< 50	16	> 20000	> 20000	31.7	0.48 (≈ 765 µM)	> 20000	–	COC[C@H](NC(=O)[C@H](CCc1ccccc1)NC(=O)c1cc(CN2CCOCC2)on1)C(=O)N[C@@H](CC(C)C)C(=O)[C@@]1(C)CO1 [CX13-601]
> 20000	< 10	6.1	> 20000	186	59.3	3.73 (≈ 5730 µM)	297	< 500	COC[C@H](NC(=O)[C@H](CCc1ccccc1)NC(=O)Cc1ccc(CN2CCOCC2)cc1)C(=O)N[C@@H](CC(C)C)C(=O)[C@@]1(C)CO1 [CX13-606]
> 20000	< 10	6.56	> 20000	6450	28.1	1.16 (≈ 1970 µM)	13400	–	Cc1cc(C(=O)N[C@@H](CCc2ccccc2)C(=O)N[C@@H](Cc2ccncc2)C(=O)N[C@@H](CC(C)C)C(=O)[C@@]2(C)CO2)no1 [CX13-135]
> 20000	< 5	4.28	> 20000	19900	7.41	0.02 (≈ 29.7 µM)	> 20000	–	CC(C)C[C@H](NC(=O)[C@H](Cc1ccccc1)NC(=O)[C@H](CCc1ccccc1)NC(=O)c1cc(CN2CCOCC2)on1)C(=O)[C@@]1(C)CO1 [CX13-600]
> 20000	< 10	12.2	> 20000	> 20000	6.81	0.12 (≈ 168 µM)	> 20000	–	C[C@]1(C(=O)[C@H](Cc2ccccc2)NC(=O)[C@H](Cc2cscn2)NC(=O)[C@H](CCc2ccccc2)NC(=O)c2cc(CN3CCOCC3)on2)CO1 [CX13-605]
> 20000	–	121	> 20000	> 20000	170	> 2.35	> 20000	–	COC[C@H](NC(=O)c1cc(CN2CCOCC2)on1)C(=O)N[C@@H](Cc1ccncc1)C(=O)N[C@@H](CC(C)C)C(=O)[C@@]1(C)CO1 [CX13-500]

— patent US10640533B2, “Epoxyketone compounds for enzyme inhibition” (CENTRAX INTERNATIONAL, INC., priority 2014, dated 2020)
